≈ marks a conversion by molar mass, not a printed value. Entries after “also recorded” stand apart in the source; their conditions may differ. Like-named read-outs stand apart in the source and are kept apart here.
Key:
[1] = DPPH microplate radical scavenging antioxidant assay; assay type: biochemical; conditions: for IC50: DPPH, 30 min, mean ± SD (n = 3)
Experimental: The antioxidant activity of the synthesized compounds was measured in terms of hydrogen-donating or radical scavenging ability using the DPPH microplate-based method. Absorbance measurement was obtained using Microplate/cuvette reader (Spectramax M5, Molecular Devices, California, USA). Reference standard compound ascorbic acid was used as the positive control for this assay at concentrations ranging from 1.563 to 200 μg/mL. Test samples were prepared at a starting concentration of 200 μg/mL after mixing with 100 μl of 0.2 mM DPPH methanolic solution. A series of concentrations were tested for the samples in order to determine the 50% inhibitory concentration (IC50). Samples were incubated with DPPH in the dark for 30 min at room temperature (25° C.). The DPPH solution in methanol was prepared daily and stored in a flask covered with aluminum foil. DPPH radicals have an absorption maximum (λmax) at 515 nm, in which the absorbance values were measured and converted into percentage of antioxidant activity.
Methanolic DPPH solution without antioxidant was applied as control and background control was samples in methanol only. IC50 was determined using Graphpad Prism 7 (Graphpad Software Inc. CA, USA). The percentage inhibition was calculated by using the formula:
The assay was carried out in triplicate and performed as much as possible in an area protected against light. The data points are presented as the mean±standard deviation (SD) (n=3).

[2] = test system: Candida albicans NRRL Y-477; assay: Agar well diffusion, primary antimicrobial screening; assay type: cell-based; conditions: for antifungal activity compared with reference drug: C. albicans; for zone of inhibition at 10000 µg/mL: Candida albicans, NRRLY477, C. albicans NRRL Y-477, 100 μL of 10 mg/ml in DMSO, 24 h, read-out: Inhibition Diameter Zone CA
Source text: (§1) The newly synthesized compounds were individually tested for their in vitro antimicrobial activity against the standard bacteria strains of American Type Culture Collection (ATCC), namely, Staphylococcus aureus ATCC 29213, Bacillus subtilis ATCC 6633, Bacillus megaterium ATCC 9885 (Gram-positive), Escherichia coli ATCC 2592 and Pseudomonas aeruginosa ATCC 27953 (Gram-negative). In addition, they were microbiologically tested against the locally isolated Saccharomyces cerevisiae (yeast) and the standard strain of Agricultural Research Service Culture Collection (NRRL) of the yeast like pathogenic fungus Candida albicans NRRL Y-477. The primary screening was carried out using the agar well diffusion method using nutrient agar (NA) medium and Sabourand dextrose agar (SDA) medium for pathological tested bacteria and yeast, respectively.
(§2) Antimicrobial tests were carried out by the agar well diffusion method using 100 μL of suspension containing 1×10^8 CFU/mL of pathological tested bacteria and 1×10^6 CFU/ml of yeast spread on NA and SDA, respectively. After the media was cooled and solidified, wells (10 mm in diameter) were made in the solidified agar and loaded with 100 μL of tested compound solution prepared by dissolving 10 mg of the chemical compound in one ml of dimethyl sulfoxide (DMSO). The inculcated plates were then incubated for 24 h at 37° C. for bacteria and yeast. Negative controls were prepared using DMSO employed for dissolving the tested compound. Ciprofloxacin (10 mg/ml) and ketoconazole (10 mg/ml) were used as standard for antibacterial and antifungal activity, respectively. After incubation time, antimicrobial activity was evaluated by measuring the zone of inhibition against the test organisms and compared with that of the standard. Antimicrobial activities were expressed as inhibition diameter zones in millimeters (mm). The experiment was carried out in triplicate and the average zone of inhibition was calculated.

[3] = test system: Escherichia coli ATCC 2592; assay: as above; assay type: cell-based
Source text: as §1, §2

[4] = test system: Pseudomonas aeruginosa ATCC 27953; assay: as above; assay type: cell-based
Source text: as §1, §2

[5] = test system: Saccharomyces cerevisiae (local isolate); assay: as above; assay type: cell-based; conditions: for zone of inhibition at 10000 µg/mL: Saccharomyces cerevisiae, 24 h, read-out: Inhibition Diameter Zone SC; for antimicrobial activity compared with ketoconazole: S. cerevisiae
Source text: as §1, §2

[6] = test system: Staphylococcus aureus ATCC 29213; assay: as above; assay type: cell-based; conditions: for zone of inhibition at 10000 µg/mL: Staphylococcus aureus, ATCC29213, S. aureus ATCC 29213, 100 μL of 10 mg/ml in DMSO, 24 h, read-out: Inhibition Diameter Zone SA; for antibacterial activity compared with ciprofloxacin: S. aureus
Source text: as §1, §2

[7] = test system: formaldehyde-induced paw oedema; assay: Formaldehyde-induced rat paw oedema; assay type: in vivo; conditions: 2.5 mg/kg orally
Experimental: Testing was performed to determine formaldehyde-induced rat paw oedema (edema). For the formaldehyde-induced rat paw oedema (edema) test, female Wister albino rats (150-175 g) were used for determination of the anti-inflammatory activities. The rats were obtained from the animal house colony of the National Organization for Drug Control and Research (NODCAR), Egypt. The animals were kept in standard plastic cages in an air conditioned room at 22±3° C., 55±5% humidity and supplied with standard laboratory diet and water ad libitum. All animal experimental procedures were carried out according to the Ethics Committee of the National Research Centre, Cairo, Egypt and followed the guidelines of the National Institutes of Health, Guide for Care and Use of Laboratory Animals (1985).
The percentage protection against inflammation was calculated by using following formula:
[formula] where Vc is the mean percentage increase in paw volume in the control and Vd is the mean percentage increase in paw volume after injection of the test compound. Values were expressed as mean±standard error (S.E.). Comparisons between mean values were carried out using two-way analysis of variance (ANOVA), followed by Tukey Kramer multiple comparisons test for all acute toxicity study tests. […] was considered significant. Graph pad prism software (version 6) was used to carry out all statistical tests.

[8] = test system: Bacillus subtilis ATCC 6633; assay: Agar well diffusion, primary antimicrobial screening; assay type: cell-based; conditions: B. subtilis
Source text: as §1, §2

trypsin = assay: Proteinase inhibitory activity (trypsin/casein); assay type: biochemical; conditions: for % Inhibition of proteinase activity: 250 μg/ml, mean ± SD (n = 3)
Experimental: For proteinase inhibitory activity, the reaction mixture (2 ml) contained 0.06 mg trypsin, 20 mM Tris HCl buffer (pH 7.4) and 1 ml test sample (250 μg/ml for each compound). The mixture was incubated for 5 min and then 1 ml of 0.8% (w/v) casein was added. The mixture was incubated for an additional 20 min. 1 ml of 10% perchloric acid was added to arrest the reaction. The cloudy suspension was centrifuged, and the absorbance of the supernatant was read at 280 nm. Reference standard compound aspirin was used as the positive control for this assay. The experiment was performed in triplicate. Percentage inhibition of […] was calculated by using the following formula:
[formula] where Acontrol is the absorbance of the control reaction and Atest is the absorbance of the control reaction with sample.

tested microorganisms = assay: Agar well diffusion, summary over the tested microorganisms; assay type: cell-based; conditions: against one or more microorganisms
Source text: as §1, §2

[9] = test system: Bacillus megaterium ATCC 9885; assay: Agar well diffusion, primary antimicrobial screening; assay type: cell-based; conditions: B. megaterium
Source text: as §1, §2

[10] = S. cerevisiae local isolate, 100 μL of 10 mg/ml in DMSO

SMILES	IC50 [1]	antifungal activity compared with reference drug [2]	zone of inhibition at 10000 µg/mL [2] [mm]	zone of inhibition at 10000 µg/mL [5, 10] [mm]	zone of inhibition at 10000 µg/mL [6] [mm]	melting point [°C]	antibacterial activity compared with reference drug [8]	antimicrobial activity compared with ketoconazole [5]	antibacterial activity compared with ciprofloxacin [6]	in vitro anti-proteinase activity compared with aspirin (trypsin)	in vivo anti-inflammatory activity [7]	antimicrobial activity compared with standard antimicrobials (ciprofloxacin and ketoconazole) (tested microorganisms)	% Inhibition of proteinase activity (trypsin) [%]	other results
CC(=O)c1ccc(NS(=O)(=O)c2c(O)c3cc(Cl)ccc3oc2=O)cc1 [Compound 11e, N-(4-acetylphenyl)-6-chloro-4-hydroxy-2-oxo-2H-chromene-3-sulfonamide]	32.85 ± 1.322 µg/mL (≈ 83.4 µM)	higher antifungal activity	< 15	< 15	< 15	238 to 240								zone of inhibition at 10000 µg/mL ([3]; Escherichia coli, ATCC2592, E. coli ATCC 2592, 100 μL of 10 mg/ml in DMSO, 24 h, read-out: Inhibition Diameter Zone EC): < 15 mm; zone of inhibition at 10000 µg/mL ([4]; Pseudomonas aeruginosa, ATCC27953, P. aeruginosa ATCC 27953, 100 μL of 10 mg/ml in DMSO, 24 h, read-out: Inhibition Diameter Zone PA): < 15 mm; % inhibition of rat paw oedema ([7]; one hour after induction of inflammation): 9.45%
O=c1oc2ccc(Cl)cc2c(O)c1S(=O)(=O)Nc1ccc(O)cc1 [Compound 11c, 6-Chloro-4-hydroxy-N-(4-hydroxyphenyl)-2-oxo-2H-chromene-3-sulfonamide]	3.87 ± 0.409 µg/mL (≈ 10.5 µM)			32		250 to 251	comparable antibacterial activities to the standard	higher than that of the corresponding control drug	higher than the control ciprofloxacin	as potent	significant protection against inflammation	equal to or higher than the standard antimicrobials		antioxidant activity ([1]; overview): particularly high antioxidant activity
Cc1ccc2oc(=O)c3c(c2c1)OC(N)=C(C(N)=O)C3c1ccc([N+](=O)[O-])cc1 (racemic) [Compound 6a, (±)-2-amino-9-methyl-4-(4-nitrophenyl)-5-oxo-4H, 5H-pyrano[3,2-c]chromene-3-carboxamide]	— ((—): inactive (IC50 > 200 μg/mL))		< 15		< 15	142 to 144				more potent	significant in vivo anti-inflammatory activity; also recorded: significant protection against inflammation		79.72±4.51	zone of inhibition at 10000 µg/mL [5]: < 15 mm
O=C(/C=C/c1ccc(Cl)cc1)c1ccc(NS(=O)(=O)c2c(O)c3cc(Cl)ccc3oc2=O)cc1 [Compound 12c, (E)-6-chloro-N-(4-(3-(4-chlorophenyl)acryloyl)phenyl)-4-hydroxy-2-oxo-2H-chromene-3-sulfonamide]	— ((—): inactive (IC50 > 200 μg/mL))	higher antifungal activity		31		157 to 159	comparable antibacterial activities to the standard	higher than that of the corresponding control drug	equal to ciprofloxacin			equal to or higher than the standard antimicrobials	17.6 ± 6.86	antibacterial activity compared with ciprofloxacin [9]: comparable to ciprofloxacin; antibacterial activity compared with ciprofloxacin ([3]; E. coli): comparable antibacterial potential; antibacterial activity compared with standard ([4]; P. aeruginosa): comparable antibacterial activity to the standard
Cc1ccc2oc(=O)c(S(=O)(=O)Nc3ccc(S(=O)(=O)Nc4nccs4)cc3)c(O)c2c1 [Compound 10f, 4-hydroxy-6-methyl-2-oxo-N-(4-(N-(thiazol-2-yl)sulfamoyl)phenyl)-2H-chromene-3-sulfonamide]	83.52 ± 1.849 µg/mL (≈ 169 µM)					167 to 169				as potent	significant protection against inflammation		43.88 ± 5.6	
